Assays:
[1] = tested on: Cushing's syndrome patients; assay: Cushing's syndrome patient study: coagulation factors, platelets, aPTT; format: in vivo, human
Source text: (§1) All patients gave informed consent before participating in any study-related procedures. […] The study protocol called for patient visits to the study site at screening, on Day 1 (baseline), Weeks 2, 4, 6, 8, 10, and 12, and after a 4-week follow-up period for Group 1. For Group 2, the protocol called for patient visits to the study site at screening, on Day 1 (baseline), Weeks 2, 4, 6, 8, 10, 12, 14, and 16, and after a 4-week follow-up period. Patient dosing will be done at home, except on days of study visits. […] The safety protocol also included assessments by physical examination findings, vital signs, ECG results, pregnancy tests, clinical laboratory test results (hematology and chemistry panels), adverse events (AEs), and concomitant medications. […] It ignores noncompliance, protocol deviations, withdrawal, and anything that happens after randomization. In contrast, per-protocol (PP) analysis refers to inclusion in the analysis of only those patients who strictly adhered to the protocol. The PP analysis provides an estimate of the true efficacy of an intervention, i.e., among those who completed the treatment as planned.

[2] = tested on: Cushing's syndrome patients; assay: Cushing's syndrome patient study: liver function tests (ALT, AST); format: in vivo, human; details: All Subjects, mITT
Source text: as §1

[3] = Abnormal at Baseline, mITT, Overall
[4] = Abnormal at Baseline, mPP, Group 1 (100-200 mg/day, 12 weeks)
[5] = Abnormal at Baseline, mPP, Group 2 (250-400 mg/day, 16 weeks)
[6] = Abnormal at Baseline, mPP, Overall
[7] = All Subjects, mITT, Group 1 (100-200 mg/day, 12 weeks)
[8] = All Subjects, mITT, Group 2 (250-400 mg/day, 16 weeks)
[9] = All Subjects, mPP, Group 1 (100-200 mg/day, 12 weeks)
[10] = All Subjects, mPP, Group 2 (250-400 mg/day, 16 weeks)
[11] = Group 1 (100-200 mg/day, 12 weeks)
[12] = Group 2 (250-400 mg/day, 16 weeks)

Cn1cc(S(=O)(=O)N2CCC3=Cc4c(cnn4-c4ccc(F)cc4)C[C@]3(C(=O)c3cc(C(F)(F)F)ccn3)C2)cn1 [relacorilant, (R)-(1-(4-fluorophenyl)-6-((1-methyl-1H-pyrazol-4-yl)sulfonyl)-4,4a,5,6,7,8-hexahydro-1H-pyrazolo[3,4-g]isoquinolin-4a-yl) (4-(trifluoromethyl)pyridin-2-yl)methanone]
Thrombin-Antithrombin mean change from Baseline to Last Observed [1, 3]: -3.88 µg/L | von Willebrand Factor mean change from Baseline to Last Observed [1, 3]: −18.5% | Factor IX mean change from Baseline to Last Observed [1, 4]: −40.8% | Factor X mean change from Baseline to Last Observed [1, 4]: −15.8% | Thrombin-Antithrombin mean change from Baseline to Last Observed [1, 4]: 1.61 µg/L | Factor IX mean change from Baseline to Last Observed [1, 5]: −4.2% | Factor X mean change from Baseline to Last Observed [1, 5]: −22% | Thrombin-Antithrombin mean change from Baseline to Last Observed [1, 5]: -9.83 µg/L | von Willebrand Factor mean change from Baseline to Last Observed [1, 5]: −18.5% | Factor IX mean change from Baseline to Last Observed [1, 6]: −22.5% | Factor X mean change from Baseline to Last Observed [1, 6]: −18.13% | Thrombin-Antithrombin mean change from Baseline to Last Observed [1, 6]: -3.88 µg/L | von Willebrand Factor mean change from Baseline to Last Observed [1, 6]: −18.5% | Factor IX mean change from Baseline to Last Observed [1, 7]: −11.59% | Factor VIII mean change from Baseline to Last Observed [1, 7]: −11.94% | Factor X mean change from Baseline to Last Observed [1, 7]: −0.06% | Platelet Count mean change from Baseline to Last Observed [1, 7]: −62.82 10^9/L | Thrombin-Antithrombin mean change from Baseline to Last Observed [1, 7]: 1.48 µg/L | aPTT mean change from Baseline to Last Observed [1, 7]: 2.24 s | von Willebrand Factor mean change from Baseline to Last Observed [1, 7]: 2.88% | Factor IX mean change from Baseline to Last Observed [1, 8]: 6.44% | Factor VIII mean change from Baseline to Last Observed [1, 8]: −26.38% | Factor X mean change from Baseline to Last Observed [1, 8]: −8.88% | Platelet Count mean change from Baseline to Last Observed [1, 8]: −74.82 10^9/L | Thrombin-Antithrombin mean change from Baseline to Last Observed [1, 8]: -7.13 µg/L | aPTT mean change from Baseline to Last Observed [1, 8]: 0.5 s | von Willebrand Factor mean change from Baseline to Last Observed [1, 8]: 10.88% | Factor IX mean change from Baseline to Last Observed ([1]; All Subjects, mITT, Overall): −2.85% | Factor VIII mean change from Baseline to Last Observed ([1]; All Subjects, mITT, Overall): −18.94% | Factor X mean change from Baseline to Last Observed ([1]; All Subjects, mITT, Overall): −4.33% | Platelet Count mean change from Baseline to Last Observed ([1]; All Subjects, mITT, Overall): −68.82 10^9/L | Thrombin-Antithrombin mean change from Baseline to Last Observed ([1]; All Subjects, mITT, Overall): -2.69 µg/L | aPTT mean change from Baseline to Last Observed ([1]; All Subjects, mITT, Overall): 1.45 s | von Willebrand Factor mean change from Baseline to Last Observed ([1]; All Subjects, mITT, Overall): 6.76% | Factor IX mean change from Baseline to Last Observed [1, 9]: −11.59% | Factor VIII mean change from Baseline to Last Observed [1, 9]: −11.94% | Factor X mean change from Baseline to Last Observed [1, 9]: −0.06% | Thrombin-Antithrombin mean change from Baseline to Last Observed [1, 9]: 1.48 µg/L | aPTT mean change from Baseline to Last Observed [1, 9]: 2.24 s | von Willebrand Factor mean change from Baseline to Last Observed [1, 9]: 2.88% | Factor IX mean change from Baseline to Last Observed [1, 10]: 6.44% | Factor VIII mean change from Baseline to Last Observed [1, 10]: −26.38% | Factor X mean change from Baseline to Last Observed [1, 10]: −8.88% | Thrombin-Antithrombin mean change from Baseline to Last Observed [1, 10]: -7.13 µg/L | aPTT mean change from Baseline to Last Observed [1, 10]: 0.5 s | von Willebrand Factor mean change from Baseline to Last Observed [1, 10]: 10.88% | Factor IX mean change from Baseline to Last Observed ([1]; All Subjects, mPP, Overall): −2.85% | Factor VIII mean change from Baseline to Last Observed ([1]; All Subjects, mPP, Overall): −18.94% | Factor X mean change from Baseline to Last Observed ([1]; All Subjects, mPP, Overall): −4.33% | Thrombin-Antithrombin mean change from Baseline to Last Observed ([1]; All Subjects, mPP, Overall): -2.69 µg/L | aPTT mean change from Baseline to Last Observed ([1]; All Subjects, mPP, Overall): 1.45 s | von Willebrand Factor mean change from Baseline to Last Observed ([1]; All Subjects, mPP, Overall): 6.76% | coagulation factors (FIG. 3) ([1]; Cushing's syndrome patients): improvement in coagulation factors | onset of improvement/normalization of abnormally elevated coagulation factors ([1]; treatment with relacorilant): as early as after one month | ALT (SGPT) mean change from Baseline to Last Observed [2, 11]: −7.88 U/L | AST (SGOT) mean change from Baseline to Last Observed [2, 11]: −2.71 U/L | ALT (SGPT) mean change from Baseline to Last Observed [2, 12]: −13.35 U/L | AST (SGOT) mean change from Baseline to Last Observed [2, 12]: −7.31 U/L | ALT (SGPT) mean change from Baseline to Last Observed ([2]; Overall): −10.62 U/L | AST (SGOT) mean change from Baseline to Last Observed ([2]; Overall): −4.94 U/L
